This passage reports IC50 and CC50 results from patent EP0516186A2, “Nucleosides and nucleoside analogues, pharmaceutical composition and processes for the preparation of the compounds” (priority 1987, dated 1988).

Each structure is given as a SMILES string.

Common to all, as to format: cell-based
The test system of one data set is HIV (HTLV-IIIB). Description: Effect on HIV in H9 cells (frequency of HIV antigen containing cells, immunofluorescence). The following applies: Human immunodeficiency virus 1; H9 cells exposed to HIV (HTLV-IIIB), incubated 6 - 7 days; read-out: Concentration (µM) for 50 % inhibition (IC₅₀) of human immuno deficiency virus multiplication in cell culture. How it is done:
Test I. Effect of compounds of the formula I on HIV in H9 cells
Materials and methods: HIV infection of H9 cells
H9 cells, 10⁵ cells per well on a 24 well plate, suspended in 2 ml RPMI-medium containing 10 % fetal calf serum, 100 µg/ml penicillin, 10 µg/ml streptomycin sulfate and 2 µg/ml polybrene are exposed to HIV (HTLV-IIIB) and different concentrations of the test compounds. The plates are incubated at 37°C in 5 % CO₂ for 6 - 7 days. The contents in each well is then homogenized with a pipette and transferred to a centrifuge tube. After centrifugation for 10 min at 1500 rpm the supernatent is removed and the cell pellet is analyzed by fixing in methanol on glass plates. Human HIV positive serum diluted 1:80 or 1:160 is added and incubated for 30 min at 37°. The plate is then washed with phosphate-buffered saline (PBS) containing Ca²⁺ and Mg²⁺. Sheep antihuman conjugate (FITC) is added and after a new incubation the plate is again washed with PBS. Contrast staining is done with Evans blue and after drying the frequency of HIV antigen containing cells is determined in a microscope.

A short description of data set [1]: Cellular toxicity in F5000 cells (cell multiplication). The following applies: F5000 human embryo cells, number of cells after 48 hrs; 50 % inhibition of cell multiplication; read-out: TC₅₀(µM) F5000. How it is done:
(§1) Test II. Cellular toxicity
(§2) F5000 cells, which are human embryo cells, 1x10⁵ cells per plate, are incubated in Eagle's minimal essential medium, supplemented with Earle's salts, non-essential amino acids, 10 % fetal calf serum, 10 mM hepes, 70 mg/l penicillin and 100 mg/l streptomycin, in absence or presence of test compounds. The number of cells per plate is determined after 48 hrs. Cells incubated in absence of test compounds underwent one cell division cycle. The results are given as TC₅₀, which is the concentration of a compound which gives 50 % inhibition of cell multiplication.

Data set [2] is described as follows: Cellular toxicity in H9 cells (cell multiplication). The following applies: human, number of cells after 48 hrs, 50 % inhibition of cell multiplication, read-out: TC₅₀(µM) H9. How it is done:
as §1
H₉ cells, 2x10⁷ cells per plate, are incubated in RPMI-1640 medium containing 10 % fetal calf serum, 70 mg/l penicillin, 100 mg/l streptomycin and 10 mM hepes, in absence or precence of test compounds. The number of cells per plate is determined after 48 hrs. Cells incubated in absence of test compound then underwent two cell division cycles.
as §2

Take `CCc1cn([C@@H]2C[C@H](O)[C@@H](CO)O2)c(=O)[nH]c1=O` [VIP 289, 1-(2-deoxy-α-D-ribofuranosyl)-5-ethyluracil]: the IC50 with HIV (HTLV-IIIB) amounted to 10 µM. Also, the CC50 at 48 h in data set [1] came to 1000 µM.
For the compound `CCCc1cn([C@@H]2C[C@H](F)[C@@H](CO)O2)c(=O)[nH]c1=O` [VSA 409, 1-(3-F-2,3-dideoxy-α-D-ribofuranosyl)-5-propyluracil], the IC50 in the data set on HIV (HTLV-IIIB) was 2.5 µM.
Turning to `CCc1cn([C@@H]2C[C@H](F)[C@@H](CO)O2)c(=O)[nH]c1=O` [VSA 411, 1-(3-F-2,3-dideoxy-α-D-ribofuranosyl)-5-ethyluracil], the CC50 at 48 h worked out at 400 µM in data set [2] and 500 µM in data set [1]. For the same compound, the IC50 in the data set with HIV (HTLV-IIIB) came to 0.1 µM.
In the case of `Cc1cn([C@@H]2C[C@H](F)[C@@H](CO)O2)c(=O)[nH]c1=O` [VSA 419, 1-(3-F-2,3-dideoxy-α-D-ribofuranosyl)thymine], in data set [1], the CC50 at 48 h came out at 250 µM.
